Assay results as given in patent US20230141823A1, “PREBIOTIC AND PROBIOTIC TREATMENT TO REDUCE ORAL DYSBIOSIS AND PROMOTE EUBIOSIS” (FUNDACIÓN PARA EL FOMENTO DE LA INVESTIGACIÓN SANITARIA Y …, priority 2019, published 2023).
Where two headings read alike, the source gives them in different places.

Tests used:
[1] = adult of 60 kg; cited from earlier work
[2] = system: biofilms from subgingival plaque of patients with periodontitis
Procedure: In addition to the oral biofilms from healthy individuals provided in EXAMPLE 1, ex vivo experiments with a dysbiotic community (subgingival plaque samples from patients with periodontitis) were performed. Eleven patients diagnosed with periodontitis were enrolled into the study. Subgingival plaque was collected by inserting eight to ten sterile paper points inside the deepest periodontal pockets. The paper points were then transferred to a 2 mL tube containing reduced transport media (RTF) and stored in a cooling box at around 4° C. for max. 18 hours. For the biofilm growth, BHI containing vitamin K and hemin (as described in EXAMPLE 1) was used. Transport medium was removed by centrifugation (1 min, 12000 rpm), followed by resuspension into 1 mL BHI. The xCELLigence system described in EXAMPLE 1 was used. Patient samples were incubated under four different conditions; control, nitrate, control+probiotic and nitrate+probiotic. First, 100 µl of periodontal plaque in BHI was added to the wells. Then, for the nitrate condition, 5 µl of 250 mM nitrate in BHI was added to the wells to obtain a 5 mM nitrate concentration. For the control+probiotic and nitrate+probiotic conditions, 45 pi of R. aeria D1P7 culture of OD (600 nm)=0.417 was added to the wells, resulting in a final OD (600 nm) of 0.075 per well. BHI was added to reach a final volume of 250 pi. A medium control (without patient sample or probiotic) with nitrate (Cntr) was used to determine the initial amounts of nitrate and nitrite in the medium. After 7 hours of incubation, supernatant and biofilm was harvested for nitrate/nitrite measurements and 16S rRNA gene sequencing, respectively (both described in EXAMPLE 1).

[3] = system: oral biofilms grown from unstimulated saliva; settings: 6.5 mM nitrate
Procedure: (§1) BHI medium (Biolife) with an additional 0.05 mg/L haemin, 0.005 mg/L menadione and 0.2 mM vitamin K (all Sigma-Aldrich) was prepared of which 100 pi was added to each well for background impedance measurements. An additional 25 µl of a 65 mM nitrate in water or just water were added to each well of the nitrate or control condition, respectively. Then, 125 pi freshly collected saliva was added, leading to a final concentration of 6.5 mM nitrate in the nitrate condition. The E-Plate 96 was placed in the xCELLigence system inside an incubator at 37° C. Every 10 minutes, a Cell Index measurement was taken. […] For Oh measurements, 1:1 medium and saliva mixtures were used. Then, duplicates of supernatant and biofilm were taken after 5 h and 9 h of growth. The supernatant was sampled and stored at −20° C. until pH, nitrate, nitrite, ammonium and lactate measurements. After this, a PBS washing step was performed and duplicates of biofilms were resuspended together in 200 pi PBS for storage at −20° C. until DNA isolation for sequencing.
For DNA extraction, the biofilms were resuspended in 100 pi PBS and disaggregated 30 s in a sonicator bath (model Raypa VCI-50) at low ultrasound intensity. After this, DNA was isolated by MagNA Pure LC 2.0 Instrument (Roche Diagnostics), using the MagNA Pure LC DNA Isolation Kit III for Bacteria and Fungi (Roche Diagnostics) following the manufacturer's instructions with an additional enzymatic lysis step: to a salivary pellet in 100 pi PBS, […] lysis buffer and […] of enzyme mix, containing 20 mg/ml lysozyme ([…]), 5 mg/l lysostaphin (Sigma-Aldrich) and 0.625 mg/ml mutanolysin (Sigma-Aldrich), were added and incubated for 60 min at 37° C. DNA was resuspended in […] elution buffer and frozen at −20° C. until further analysis. To determine the amount of DNA for sequencing, the Quant-iT™ PicoGreen® dsDNA Assay Kit (ThermoFisher) and a Qubit™ 3 Fluorometer (ThermoScientific) were used, according to manufacturer's instructions.
A pre-amplification step of the V1-V5 regions of the 16S rRNA gene was performed, following Dzidic et al 2019. An Illumina amplicon library was performed following the 16S rDNA gene Metagenomic Sequencing Library Preparation Illumina protocol (Part #15044223 Rev. A). The gene-specific primer sequences used in this protocol were 16S Amplicon F (SEQ ID NO: 8) and 16S Amplicon R (SEQ ID NO: 9), targeting the 16S rDNA gene V3 and V4 regions, resulting in a single amplicon of 460 bp. Overhang adapter sequences were used together for compatibility with Illumina index and sequencing adapters. After 16S rDNA gene amplification, the DNA was sequenced on a MiSeq Sequencer according to manufacturer's instructions (Illumina) using the 2×300 bp paired-ends protocol.
The sequences were analyzed according to Boix-Amoros et al., 2016. In short, the reads were quality-filtered and end-trimmed in 10 bp windows with Prinseq. The PCR chimeras were removed with UCHIME according to Edgar et al., 2011. Only filtered sequences >250 bp were used to be taxonomically assigned at the genus level with the classifier of the Ribosomal Database Project (Wang et al., 2007), using a confidence interval of 80%. Operational Taxonomic Unit (OTU) picking was performed using VSEARCH (Rognes, 2016) at a 97% of sequence identity. Each OTU was aligned centroid using BLAST at 97% of identity and 100% query coverage, and retrieved only those species that agreed with the previous classification of the centroid at genus level provided by RDP classifier.
Overall R programming language was used for statistical computing to perform downstream analyses. Genera with an abundance of <0.01% were removed from all groups.

[4] = in vivo; cited from earlier work
[5] = system: oral biofilms grown from unstimulated saliva
Procedure: as §1

[6] = system: oral biofilm grown from saliva of donors D2 and D25; experiment: Effect of isolates on in vitro biofilms: colonization by sequencing; format: cell-based, human; settings: 5 h of growth
Procedure: Six isolates selected as best potential probiotics based on the results from previous experiments were studied in vitro to define the effect of these isolates when they are added to an oral biofilm. These isolates were tested by growing them with saliva of two different donors (D2 and D25 in our database) in a 96-wells plate. For each experiment, there were 4 conditions: control, nitrate (i.e., 6.5 mM nitrate), control+isolate, and nitrate+isolate. […] Then, 100 pL of saliva (or BHI for negative controls) was added and, for the nitrate conditions, 10 pL of nitrate solution 65 mM was added (or 10 pL of BHI for control conditions). Negative controls were added in each experiment: only BHI medium and BHI medium+nitrate. Before being added to the 96-well plate, the isolates were grown for 24 h. Then, 40 pL isolate in BHI solution with OD 1.5 was added (or 40 pL of just BHI in conditions without isolates) to each well. The final concentration of nitrate was 6.5 mM and starting OD of the isolate was 0.24. The 96-well plate was sealed to prevent oxygen presence, and incubated during 5 h 30 min at 37° C. After that, the supernatant was collected, the pellet resuspended in 30 pL of PBS and both stored at −20° C. until measurements were performed. The DNA was extracted and the biofilms were sequenced as described in EXAMPLE 1.

[7] = system: unstimulated saliva
Procedure: The unstimulated saliva of D25-D33 was used to test the effect of different concentrations of nitrate on a pH drop caused by 0.2% of glucose after 5 h of incubation. For each donor, 187 µl of saliva and 22 µl of glucose (2% diluted in water) was added per well of a standard 96-well plate. Then, 11 pL of water without or with different concentrations of nitrate was added, leading to final concentrations of 0 mM, 0.5 mM, 1 mM, 1.5 mM, 2.5 mM, 3.5 mM, 4.5 mM, 5.5 mM, 6.5 mM, 7.5 mM and 8.5 mM of nitrate. The plate was sealed with adhesive aluminum foil (VWR) and incubated during 5 h at 37° C. After incubation, the samples were stored at −20° C. until pH measurements.
(§2) For the nitrate, nitrite, ammonium, lactate and pH measurements, the RQflex® 10 Reflectoquant® (Merck Millipores), a reflectometer that measures the reflection of color changing test strips, was used.

[8] = system: oral biofilms grown from unstimulated saliva; remark: listed apart in the source
Procedure: as §1, §2
In the case of nitrate, nitrite, ammonium and lactate measurements, the supernatant of the cultures was diluted 1:10 with water to minimize the interference of medium compounds. […] For pH measurements, undiluted supernatant was used. For all measurements except ammonium, 15 pi of (diluted) supernatant was added to two reactive patches on a strip, excess liquid was removed by tipping the side of the strip on a tissue, the corresponding incubation time was applied for each measurement, and the strip was put inside the reflectometer.
Nitrite was measured first. The diluted supernatants in which 0.5 mg/l or more nitrite was detected were treated with amidosulfuric acid to remove nitrite before nitrate measurements. For this, […] of diluted supernatant was mixed with 1.5 ml amidosulfuric acid solution (10%), and directly added to the strips.
For ammonium measurements, aliquots were made of […] diluted supernatant to which 10 m l of reagent 1 of the kit was added first and resuspended well. Then, […] of a freshly made mixture of one scoop of reagent 2 (both provided with the kit) dissolved in 1.25 ml water was added directly and resuspended well. This solution was then directly added to the strips and incubated. Five seconds before the measurements, excess liquid was removed. All measured concentrations were adjusted by dilution factors.

[9] = Donor 2, Nitrate condition (6.5 mM)
[10] = Donor 25, Nitrate condition (6.5 mM)

O=[N+]([O-])O [Nitrate, nitrate]
Acceptable Daily Intake, ADI [1]: 222 mg | mean growth curve of the periodontitis biofilms versus control condition ([2]; 11 patients, 7 h): lower | levels of periodontal pathogens such as Porphyromonas, Eikenella and Tannerella ([2]; 7 hours, versus control): reducing the levels | nitrate reduced after the 7 hours of growth ([2]; periodontal samples (n=11), anaerobic): around 20% | increase of Neisseria compared to control condition ([3]; 5 h): 3.5 × | Bacterial abundance Aggregatibacter (Average) ([3]; 5 h (n = 12)): 0.55% | Bacterial abundance Alloprevotella (Average) ([3]; 5 h (n = 12)): 0.21% | Bacterial abundance Fusobacterium (Average) ([3]; 5 h (n = 12)): 0.15% | Bacterial abundance Gemella (Average) ([3]; 5 h (n = 12)): 2.76% | Bacterial abundance Granulicatella (Average) ([3]; 5 h (n = 12)): 2.16% | Bacterial abundance Haemophilus (Average) ([3]; 5 h (n = 12)): 7.30% | Bacterial abundance Leptotrichia (Average) ([3]; 5 h (n = 12)): 0.14% | Bacterial abundance Neisseria (Average) ([3]; 5 h (n = 12)): 20.65% | Bacterial abundance Other (Average) ([3]; 5 h (n = 12)): 3.64% | Bacterial abundance Porphyromonas (Average) ([3]; 5 h (n = 12)): 0.56% | Bacterial abundance Prevotella (Average) ([3]; 5 h (n = 12)): 1.99% | Bacterial abundance Rothia (Average) ([3]; 5 h (n = 12)): 0.53% | Bacterial abundance Streptococcus (Average) ([3]; 5 h (n = 12)): 45.29% | Bacterial abundance Viellonella (Average) ([3]; 5 h (n = 12)): 10.84% | Bacterial abundance unclass. Neisseriaceae (Average) ([3]; 5 h (n = 12)): 0.95% | Bacterial abundance unclass. Pasteurellaceae (Average) ([3]; 5 h (n = 12)): 2.00% | Bacterial abundance unclass. Veillonellaceae (Average) ([3]; 5 h (n = 12)): 0.26% | Rothia higher than in control condition ([3]; 5 h and 9 h): 2.7 × | increase of Neisseria compared to control condition ([3]; 9 h): 4.9 × | Bacterial abundance Aggregatibacter (Average) ([3]; 9 h (n = 12)): 0.72% | Bacterial abundance Alloprevotella (Average) ([3]; 9 h (n = 12)): 0.37% | Bacterial abundance Fusobacterium (Average) ([3]; 9 h (n = 12)): 0.38% | Bacterial abundance Gemella (Average) ([3]; 9 h (n = 12)): 1.83% | Bacterial abundance Granulicatella (Average) ([3]; 9 h (n = 12)): 1.56% | Bacterial abundance Haemophilus (Average) ([3]; 9 h (n = 12)): 8.86% | Bacterial abundance Leptotrichia (Average) ([3]; 9 h (n = 12)): 0.16% | Bacterial abundance Neisseria (Average) ([3]; 9 h (n = 12)): 20.99% | Bacterial abundance Other (Average) ([3]; 9 h (n = 12)): 4.80% | Bacterial abundance Porphyromonas (Average) ([3]; 9 h (n = 12)): 1.51% | Bacterial abundance Prevotella (Average) ([3]; 9 h (n = 12)): 2.78% | Bacterial abundance Rothia (Average) ([3]; 9 h (n = 12)): 0.25% | Bacterial abundance Streptococcus (Average) ([3]; 9 h (n = 12)): 31.75% | Bacterial abundance Viellonella (Average) ([3]; 9 h (n = 12)): 20.40% | Bacterial abundance unclass. Neisseriaceae (Average) ([3]; 9 h (n = 12)): 1.07% | Bacterial abundance unclass. Pasteurellaceae (Average) ([3]; 9 h (n = 12)): 2.12% | Bacterial abundance unclass. Veillonellaceae (Average) ([3]; 9 h (n = 12)): 0.38% | change of Kingella ([3]; after 5 h, p<0.05): increased significantly | Porphyromonas, Fusobacterium, Leptotrichia, Alloprevotella, Dialister and Parvimonas versus control ([3]; p<0.05 at 5 h and/or 9 h): significantly lower | change of caries-associated Atopobium and Oribacterium ([3]; p<0.05 at 5 h or 5 h and 9 h): decreased significantly | nitrate recycled by the salivary glands into saliva [4]: 25% | nitrate removed from the body by the kidneys into the urine [4]: Around 75% | real-time impedance measurements of biofilm growth compared to control biofilms ([5]; 6.5 mM nitrate (403 mg/L)): did not show significant changes | biofilm protein levels compared to control ([5]; 6.5 mM nitrate, 5 h and 9 h): did not differ significantly | R. aeria (%) in biofilm [6, 9]: 0.06% | R. mucilaginosa (%) in biofilm [6, 9]: 2.33% | R. aeria (%) in biofilm [6, 10]: 0.03% | R. mucilaginosa (%) in biofilm [6, 10]: 7.94% | salivary pH after 5 h compared to 0 mM nitrate ([7]; 0.2% glucose, nitrate 0.5 mM to 8.5 mM): higher pH | nitrate concentrations for which no additional benefits were observed ([7]; after 5 h): above 3.5 mM | nitrate concentrations that prevented salivary acidification due to glucose fermentation ([7]; after 5 h): ≥ 0.5 mM | decrease of nitrate after 5 h ([8]; 6.5 mM nitrate added, 5 of 12 donors): 76-85% | nitrate left after 5 h ([8]; 6.5 mM nitrate added, 7 of 12 individuals): no nitrate detectable | average nitrite in supernatant ([8]; 6.5 mM nitrate condition, 5 h (1.64 mg/l at 0 h)): 64.68 mg/L | pH compared to control condition ([8]; 6.5 mM nitrate, 5 h and 9 h, p<0.005): significantly higher | share of the 6.5 mM added nitrate accounted for by ammonium (stoichiometric) ([8]; after 9 h): 73.1% | increase of average ammonium after 5 h ([8]; nitrate condition (control 1.72×)): 2.21 × | increase of average lactate after 5 h ([8]; nitrate condition (control 4.74×)): 3.40 × | ammonium higher than in the control condition ([8]; nitrate condition, after 9 h): 4.75 mM
